The values that follow come from publication PMC9122903, “First purified recombinant CYP75B including transmembrane helix with unexpected high substrate specificity to (2R)-naringenin” (Scientific Reports, 2022).

For orientation: Km means the concentration of substrate that gives half-maximal velocity.

Test in all cases: hydroxylation, product quantified by HPLC-DAD ([…] nm)
Holding throughout (type): biochemical, Dahlia pinnata
Holding throughout (details): 1.55 mM NADPH, CrCPR microsomes, pH 7.5, 30 °C

The subject of experiment [1] is T1, DvCH3H (chalcone 3-hydroxylase).
T1 construct: gene CH3H; assayed with yeast microsomes containing recombinant Catharanthus roseus CPR (GenBank X69791.1); with NADPH--cytochrome P450 reductase (Catharanthus roseus)

The test system is the same in experiment [2]. The source holds these as a separate data set.
Experiment [3] shares this test system. This is another data set of the same source.

Regarding `O=C1CC(c2ccc(O)cc2)Oc2cc(O)cc(O)c21` (racemic) [Racemic Naringenin], in experiment [1] (racemic mixture), the Km was 0.402 ± 0.046 µM.
Turning to `O=C1C[C@H](c2ccc(O)cc2)Oc2cc(O)cc(O)c21` [(2R)-Naringenin], the Km in experiment [1] stood at 0.408 ± 0.015 µM.
As to `O=C1C[C@@H](c2ccc(O)cc2)Oc2cc(O)cc(O)c21` [(2S)-Naringenin], the Km in experiment [1] stood at 0.76 ± 0.094 µM.
Take `O=c1cc(-c2ccc(O)cc2)oc2cc(O)cc(O)c12` [Apigenin]: in experiment [2], the Michaelis-Menten constant (Km) is 0.329 ± 0.007 µM.
As to `O=c1c(O)c(-c2ccc(O)cc2)oc2cc(O)cc(O)c12` [Kaempferol], in experiment [3], the Km was determined as 0.622 ± 0.069 µM.
